Source: US20220002283A1 (Mylan Laboratories Limited, priority 2019, published 2022)

Columns and labels:
[1] = Solid state stability, HPLC meloxicam co-crystal assay; format: physicochemical; details: for A %: Co-former Assay % / M %: Meloxicam Assay %: samples as per Examples 1, 2, 3
Experimental: • Instrumentation: Waters HPLC system having 2695 model pump having UV/PDA detector with Empower chromatography software or its equivalent. • Column: (A) Unison UK C18 column; (B) YMC Trait C18 EXRS Column, 250×4.6 mm, 5.0 micron; (C) Water Atlantis T3, 250×4.6 mm, 5 micron. • Mobile Phase: (A) methanol-acetonitrile-dipotassium phosphate buffer; or (B) acetonitrile-Sodium sulfate buffer solution • Detection wavelength: 210 nm and 360 nm
(§1) The samples were analyzed by PXRD, assay and related substances by HPLC.

[2] = Solid state stability, physical and chemical (PXRD and HPLC), overall finding
Experimental: as §1

[3] = Solid state stability, impurities by HPLC; format: physicochemical
Experimental: A Zorbax Eclipse XDB C18 column was used with the mobile phase of methanol-acetonitrile-10 mM phosphate buffer solution at the detection wavelength of 350 nm and 260 nm. • Instrumentation: Waters HPLC system having 2695 model pump having UV/PDA detector with Empower chromatography software or its equivalent. • Chemicals: Dipotassium hydrogen phosphate, orthophosphoric acid, acetonitrile, water, sodium hydroxide, methanol. • Column: Zorbax Eclipse XDB C18 column, 250×4.6 mm, 5 μm. • Elution: Gradient. • Flow rate: 0.8 mL/min.
as §1

[4] = Solid state stability, PXRD; format: physicochemical; set-up: key: X: crystalline; S: stable
Experimental: Thus, the X-ray diffraction patterns of the co-crystals of provided herein were measured on a PANalytical X'PertPRO Powder X-ray diffractometer equipped with goniometer of θ/θ configuration and X'celerator detector. The Cu-anode X-ray tube was operated at 45 kV and 40 mA. The experiments were conducted over the 2θ range of 2.0°-50.0°, 0.030° step size and 189.865 time per step (seconds) and all the co-crystals were characterized with above mentioned method.
as §1

[5] = 25° C./60% RH, 1 mo., samples as per Example 7 or 17
[6] = 25° C./60% RH, 2 mo., samples as per Example 7 or 17
[7] = 25° C./60% RH, 3 mo., samples as per Example 7 or 17
[8] = 25° C./60% RH, Initial, samples as per Example 7 or 17
[9] = 40° C./75% RH, 1 mo., samples as per Example 7, 17 or 14
[10] = 40° C./75% RH, 2 mo., samples as per Example 7, 17 or 14
[11] = 40° C./75% RH, 3 mo., samples as per Example 7 or 17
[12] = 40° C./75% RH, Initial, samples as per Example 7, 17 or 14
[13] = 40° C./75% RH and 25° C./60% RH, three months
[14] = 25° C./60% RH, 1 mo., samples as per Examples 1, 2, 3
[15] = 25° C./60% RH, 2 mo., samples as per Examples 1, 2, 3
[16] = 25° C./60% RH, 3 mo., samples as per Examples 1, 2, 3
[17] = 25° C./60% RH, Initial, samples as per Examples 1, 2, 3
[18] = 40° C./75% RH, 1 mo., samples as per Examples 1, 2, 3
[19] = 40° C./75% RH, 2 mo., samples as per Examples 1, 2, 3
[20] = 40° C./75% RH, 3 mo., samples as per Examples 1, 2, 3
[21] = 40° C./75% RH, Initial, samples as per Examples 1, 2, 3

SMILES: Cc1cnc(NC(=O)C2=C(O)c3ccccc3S(=O)(=O)N2C)s1.O=C(O)c1ccc2ccccc2c1O
- Assay (% by HPLC) M % (Meloxicam Assay %) [1, 5]: 65.0%
- A %: Co-former Assay % ([1]; 25° C./60% RH, 1 mo.): 34.5%
- M %: Meloxicam Assay % ([1]; 25° C./60% RH, 1 mo.): 64.7%
- Assay (% by HPLC) M % (Meloxicam Assay %) [1, 6]: 63.5%
- A %: Co-former Assay % ([1]; 25° C./60% RH, 2 mo.): 35.0%
- M %: Meloxicam Assay % ([1]; 25° C./60% RH, 2 mo.): 65.0%
- Assay (% by HPLC) M % (Meloxicam Assay %) [1, 7]: 64.3%
- A %: Co-former Assay % ([1]; 25° C./60% RH, 3 mo.): 34.0%
- M %: Meloxicam Assay % ([1]; 25° C./60% RH, 3 mo.): 64.6%
- Assay (% by HPLC) M % (Meloxicam Assay %) [1, 8]: 65.1%
- A %: Co-former Assay % ([1]; 25° C./60% RH, Initial): 34.2%
- M %: Meloxicam Assay % ([1]; 25° C./60% RH, Initial): 64.3%
- Assay (% by HPLC) M % (Meloxicam Assay %) [1, 9]: 64.7%
- A %: Co-former Assay % ([1]; 40° C./75% RH, 1 mo.): 34.9%
- M %: Meloxicam Assay % ([1]; 40° C./75% RH, 1 mo.): 64.9%
- Assay (% by HPLC) M % (Meloxicam Assay %) [1, 10]: 64.0%
- M %: Meloxicam Assay % ([1]; 40° C./75% RH, 2 mo.): 64.8%
- Assay (% by HPLC) M % (Meloxicam Assay %) [1, 11]: 64.4%
- A %: Co-former Assay % ([1]; 40° C./75% RH, 3 mo.): 34.2%
- M %: Meloxicam Assay % ([1]; 40° C./75% RH, 3 mo.): 65.5%
- Assay (% by HPLC) M % (Meloxicam Assay %) [1, 12]: 65.2%
- A %: Co-former Assay % ([1]; 40° C./75% RH, Initial): 34.2%
- M %: Meloxicam Assay % ([1]; 40° C./75% RH, Initial): 64.3%
- physical and chemical stability [2, 13]: physically and chemically stable
- Impurities (% w/w, by HPLC) Methyl Meloxicam [3, 5]: 0.01 % w/w
- Impurities (% w/w, by HPLC) Other* (any other individual impurity) [3, 5]: 0.03 % w/w
- Impurities (% w/w, by HPLC) Total [3, 5]: 0.08 % w/w
- Impurities (% w/w, by HPLC) Methyl Meloxicam [3, 6]: 0.01 % w/w
- Impurities (% w/w, by HPLC) Other* (any other individual impurity) [3, 6]: 0.03 % w/w
- Impurities (% w/w, by HPLC) Total [3, 6]: 0.13 % w/w
- Impurities (% w/w, by HPLC) Methyl Meloxicam [3, 7]: 0.01 % w/w
- Impurities (% w/w, by HPLC) Other* (any other individual impurity) [3, 7]: 0.03 % w/w
- Impurities (% w/w, by HPLC) Total [3, 7]: 0.08 % w/w
- Impurities (% w/w, by HPLC) Methyl Meloxicam [3, 8]: 0.01 % w/w
- Impurities (% w/w, by HPLC) Other* (any other individual impurity) [3, 8]: 0.02 % w/w
- Impurities (% w/w, by HPLC) Total [3, 8]: 0.05 % w/w
- Impurities (% w/w, by HPLC) Methyl Meloxicam [3, 9]: 0.01 % w/w
- Impurities (% w/w, by HPLC) Other* (any other individual impurity) [3, 9]: 0.03 % w/w
- Impurities (% w/w, by HPLC) Total [3, 9]: 0.09 % w/w
- Impurities (% w/w, by HPLC) Methyl Meloxicam [3, 10]: 0.01 % w/w
- Impurities (% w/w, by HPLC) Other* (any other individual impurity) [3, 10]: 0.03 % w/w
- Impurities (% w/w, by HPLC) Total [3, 10]: 0.13 % w/w
- Impurities (% w/w, by HPLC) Methyl Meloxicam [3, 11]: 0.01 % w/w
- Impurities (% w/w, by HPLC) Other* (any other individual impurity) [3, 11]: 0.03 % w/w
- Impurities (% w/w, by HPLC) Total [3, 11]: 0.10 % w/w
- Impurities (% w/w, by HPLC) Methyl Meloxicam [3, 12]: 0.01 % w/w
- Impurities (% w/w, by HPLC) Other* (any other individual impurity) [3, 12]: 0.03 % w/w
- Impurities (% w/w, by HPLC) Total [3, 12]: 0.06 % w/w
- Meloxicam Related Compounds A, B, C, and D by HPLC ([3]; any timepoint from initiation up to 3 months, 40° C./75% RH and 25° C./60% RH): ^#Meloxicam Related Compounds A, B, C, and D (see Table 4) were not detectable at any timepoint from initiation up to 3 months.
- PXRD [4, 5]: S
- PXRD [4, 14]: S
- PXRD [4, 6]: S
- PXRD [4, 15]: S
- PXRD [4, 7]: S
- PXRD [4, 16]: S
- PXRD [4, 8]: X
- PXRD [4, 17]: X
- PXRD [4, 9]: S
- PXRD [4, 18]: S
- PXRD [4, 10]: S
- PXRD [4, 19]: S
- PXRD [4, 11]: S
- PXRD [4, 20]: S
- PXRD [4, 12]: X
- PXRD [4, 21]: X

SMILES: Cc1cnc(NC(=O)C2=C(O)c3ccccc3S(=O)(=O)N2C)s1.O=C(O)c1ccccc1O [Meloxicam:Salicylic acid Form III (1:1)]
- M %: Meloxicam Assay % ([1]; 25° C./60% RH, 1 mo.): 71.7%
- A %: Co-former Assay % ([1]; 25° C./60% RH, 2 mo.): 27.2%
- M %: Meloxicam Assay % ([1]; 25° C./60% RH, 2 mo.): 72.0%
- A %: Co-former Assay % ([1]; 25° C./60% RH, 3 mo.): 27.6%
- M %: Meloxicam Assay % ([1]; 25° C./60% RH, 3 mo.): 72.1%
- A %: Co-former Assay % ([1]; 25° C./60% RH, Initial): 27.5%
- M %: Meloxicam Assay % ([1]; 25° C./60% RH, Initial): 71.3%
- Assay (% by HPLC) M % (Meloxicam Assay %) [1, 9]: 71.4%
- M %: Meloxicam Assay % ([1]; 40° C./75% RH, 1 mo.): 72.0%
- Assay (% by HPLC) M % (Meloxicam Assay %) [1, 10]: 71.2%
- A %: Co-former Assay % ([1]; 40° C./75% RH, 2 mo.): 27.0%
- M %: Meloxicam Assay % ([1]; 40° C./75% RH, 2 mo.): 71.5%
- A %: Co-former Assay % ([1]; 40° C./75% RH, 3 mo.): 27.4%
- M %: Meloxicam Assay % ([1]; 40° C./75% RH, 3 mo.): 71.8%
- Assay (% by HPLC) M % (Meloxicam Assay %) [1, 12]: 71.1%
- A %: Co-former Assay % ([1]; 40° C./75% RH, Initial): 27.5%
- M %: Meloxicam Assay % ([1]; 40° C./75% RH, Initial): 71.3%
- physical and chemical stability [2, 13]: physically and chemically stable
- physical and chemical stability ([2]; 40° C./75% RH, at least 2 months): physically and chemically stable
- Impurities (% w/w, by HPLC) Ethyl Meloxicam [3, 9]: 0.003 % w/w
- Impurities (% w/w, by HPLC) Other* (any other individual impurity) [3, 9]: 0.01 % w/w
- Impurities (% w/w, by HPLC) Total [3, 9]: 0.04 % w/w
- Impurities (% w/w, by HPLC) Methyl Meloxicam [3, 10]: 0.001 % w/w
- Impurities (% w/w, by HPLC) Other* (any other individual impurity) [3, 10]: 0.01 % w/w
- Impurities (% w/w, by HPLC) Total [3, 10]: 0.01 % w/w
- Impurities (% w/w, by HPLC) Other* (any other individual impurity) [3, 12]: 0.01 % w/w
- Impurities (% w/w, by HPLC) Total [3, 12]: 0.01 % w/w
- Meloxicam Related Compounds A, B, C, and D by HPLC ([3]; any timepoint from initiation up to 2 months, 40° C./75% RH): ^#Meloxicam Related Compounds A, B, C, and D (see Table 4a) were not detectable at any timepoint from initiation up to 2 months.
- PXRD [4, 14]: S
- PXRD [4, 15]: S
- PXRD [4, 16]: S
- PXRD [4, 17]: X
- PXRD [4, 9]: S
- PXRD [4, 18]: S
- PXRD [4, 10]: S
- PXRD [4, 19]: S
- PXRD [4, 20]: S
- PXRD [4, 12]: X
- PXRD [4, 21]: X

SMILES: CC(=O)Oc1ccccc1C(=O)O.Cc1cnc(NC(=O)C2=C(O)c3ccccc3S(=O)(=O)N2C)s1 [Meloxicam:Acetylsalicylic acid (1:1)]
- A %: Co-former Assay % ([1]; 25° C./60% RH, 1 mo.): 33.4%
- M %: Meloxicam Assay % ([1]; 25° C./60% RH, 1 mo.): 66.0%
- A %: Co-former Assay % ([1]; 25° C./60% RH, 2 mo.): 33.0%
- M %: Meloxicam Assay % ([1]; 25° C./60% RH, 2 mo.): 66.0%
- A %: Co-former Assay % ([1]; 25° C./60% RH, 3 mo.): 33.0%
- M %: Meloxicam Assay % ([1]; 25° C./60% RH, 3 mo.): 65.7%
- A %: Co-former Assay % ([1]; 25° C./60% RH, Initial): 33.6%
- M %: Meloxicam Assay % ([1]; 25° C./60% RH, Initial): 65.7%
- A %: Co-former Assay % ([1]; 40° C./75% RH, 1 mo.): 33.4%
- M %: Meloxicam Assay % ([1]; 40° C./75% RH, 1 mo.): 65.9%
- A %: Co-former Assay % ([1]; 40° C./75% RH, 2 mo.): 32.8%
- M %: Meloxicam Assay % ([1]; 40° C./75% RH, 2 mo.): 65.8%
- A %: Co-former Assay % ([1]; 40° C./75% RH, 3 mo.): 33.0%
- M %: Meloxicam Assay % ([1]; 40° C./75% RH, 3 mo.): 65.4%
- A %: Co-former Assay % ([1]; 40° C./75% RH, Initial): 33.6%
- M %: Meloxicam Assay % ([1]; 40° C./75% RH, Initial): 65.7%
- physical and chemical stability [2, 13]: physically and chemically stable
- PXRD [4, 14]: S
- PXRD [4, 15]: S
- PXRD [4, 16]: S
- PXRD [4, 17]: X
- PXRD [4, 18]: S
- PXRD [4, 19]: S
- PXRD [4, 20]: S
- PXRD [4, 21]: X
